Test results published in patent publication US11241434B2, “Compositions and methods for improving cognition in a subject” (Yale University, priority 2013, dated 2022).

Legend:
[1] = Phase Ib study, CSF and plasma saracatinib levels (LC/MS/MS); type: in vivo, human; details: for estimated human brain concentration: using ratio of CSF:Brain in mouse; for trough CSF / free concentration of saracatinib in plasma / increase in CSF level: human; for free concentration of saracatinib in plasma: from trough CSF levels and FIG. 8 correlation
Description: Each point is from a different individual. The different dose groups are illustrated with different colors.
Each point represents trough CSF saracatinib level from a different human subject for the left three columns. The mouse trough CSF values are derived from brain levels at the 5 mg/kg/d dose that rescued memory deficits in FIGS. 3-5. Bars represent mean+sem.
Plasma samples are analyzed using solid-phase extraction followed by HPLCMS/MS. […] Calibration, quality control (QC) or blank plasma samples (200 μL) are pipetted into a standard 96-well plate. The appropriate internal standard (20 μL) is added to all samples (except the double blank to which 20 μL of methanol is added). 2% ammonium solution (1000 μL) is added to all wells and mixed. Solid-phase extraction is performed using Oasis HLB 30 mg 1 mL 96-well plates. The samples are conditioned with 1 mL methanol then 1 mL 2% ammonium solution. A 1 mL sample is loaded, washed with 1 mL 25:75, v:v methanol:water and eluted with 0.8 mL methanol. The samples are dried under oxygen-free nitrogen at 35° C. The dry residues are reconstituted in 200 μL of mobile phase, vortex mixed and transferred to 96-well plates. The vials are loaded onto HPLC-MS/MS and injected onto the reversed phase HPLC system. Calibration samples are prepared and analyzed in duplicate at LLOQ (lower limit of quantification) and ULOQ (upper limit of quantitation) and singly at all other levels. Independently prepared QC samples covering the calibration range are analyzed in duplicate and in triplicate at the dilution QC level. Plasma concentration data are quantified using an HPLC-MS/MS method and analyzed by standard methods using WinNonLin version 4.1 (Pharsight Corporation, Mountain View, Calif.).
Subjects were enrolled in three cohorts of 8 subjects each.
In certain embodiments, obtaining the scans worked as a pilot to the collection of brain metabolism data for the Phase 2a trial. In addition, saracatinib levels were measured in this study using a GLP-validated LC/MS/MS assay. […] CSF levels are about a third of plasma free drug levels.

Fyn (phospho-Src pY416) = assay: pY416 and Fyn immunoblot of hippocampus of WT mice fed AZD0530 diet; type: in vivo, mouse; details: diet pellets 5 mg/kg/d, 9 months, vs Vehicle
Excerpt: FIGS. 17A-17C illustrate reduced Fyn activation in mice fed AZD0530-containing food. FIG. 17A: Representative blots using anti-pY416, Fyn, and 8-actin antibodies of the RIPA-soluble fraction of the hippocampus of WT mice treated with Vehicle or AZD0530 for 9 months. FIG. 17B: Quantification of pY416-immunoreactive bands from the immunoblot from FIG. 17A by densitometric analysis. The bands indicated by an arrow in FIG. 17A were quantified. The band intensity was normalized to that of 8-actin and then normalized to the mean of the Vehicle-treated WT group. Data are represented as mean±SEM. n=6/group. *p<0.05; t-test. FIG. 17C: Quantification of Fyn-immunoreactive bands from the immunoblot in FIG. 17A by densitometric analysis. The band intensity was normalized to that of β-actin and then normalized to the mean of the Vehicle-treated WT group. Data are represented as mean±SEM. n=6/group. t-test.
To generate chow containing chow for chronic dosing, the compound was incorporated into purified diet pellets by Research Diets, Inc. by dissolving the compound in a solution of 0.5% w/v Hydroxypropylmethylcellulose/0.1% w/v polysorbate 80 at 1.429 mg/ml. […] The dosage of the drug in the food was calculated to take into account the average amount of food eaten by a mouse in a single day per kg of weight and adjusted to be equivalent to ingesting 5 mg/kg per day. […]

For `CN1CCN(CCOc2cc(OC3CCOCC3)c3c(Nc4c(Cl)ccc5c4OCO5)ncnc3c2)CC1` [saracatinib, N-(5-chloro-benzo[d][1,3]dioxol-4-yl)-7-(2-(4-methylpiperazin-1-yl)ethoxy)-5-(tetrahydro-2H-pyran-4-yloxy)quinazolin-4-amine], the “estimated human brain concentration” value ([1]; 50 mg saracatinib free base) was 3 to 7 nM, the “estimated human brain concentration” value ([1]; 100 mg saracatinib free base) was 7 to 27 nM and the “estimated human brain concentration” value ([1]; 125 mg saracatinib free base) was 8 to 46 nM. For the same molecule, the “trough CSF” value ([1]; 50 mg saracatinib free base daily) was 0.9 to 2.2 nM, the “free concentration of saracatinib in plasma” value (from here on “free concentration”) ([1]; 50 mg) was 2.6 to 6.5 nM and the “trough CSF” value ([1]; 100 mg saracatinib free base daily) was 2.1 to 8.3 nM. The “free concentration” value ([1]; 100 mg) was 6.2 to 24.4 nM, the “trough CSF” value ([1]; 125 mg saracatinib free base daily) was 2.5 to 14.0 nM and the “free concentration” value ([1]; 125 mg) was 7.4 to 41.2 nM. For the same molecule, the “increase in CSF level” value ([1]; from 50 to 100 mg) was “three-fold”, the “increase in CSF level” value ([1]; from 100 to 125 mg) was “two-fold” and the “total Fyn levels in hippocampus” value (Fyn (phospho-Src pY416)) was “no difference”.
